The values below come from the NIST ThermoML archive (doi:10.1016/j.jct.2007.03.005).

For data set [1] the following is noted: DTA.
A short description of data set [2]: Molar enthalpy of transition or fusion. The settings on record: DSC.

Numbers after ± are expanded uncertainties.

Consider `N#CCCCCCCCCCCCCC#N` [tetradecanedinitrile], for which the Normal melting temperature in data set [1] (Crystal 1) was determined as 36.40 ± 0.8 °C. Also, the Triple point temperature in data set [1] (Crystal 2) was 261.05 ± 0.56 K. For the same compound, the “Molar enthalpy of transition or fusion” value in data set [2] (Crystal 1) was determined as 9.6 ± 0.227 kcal/mol; in data set [2] (Crystal 2) it was 0.423 ± 0.0741 kcal/mol.

With `N#CCCCCCC#N` [heptanedinitrile], in data set [1] (Crystal 1), the Normal melting temperature was -31.4 ± 0.39 °C. Moreover, the Triple point temperature in data set [1] (Crystal 2) is reported as 236.72 ± 1.8 K. Also, the “Molar enthalpy of transition or fusion” value in data set [2] (Crystal 1) stood at 3.59 ± 0.406 kcal/mol.

As to `N#CCCCCCCCCCC#N` [undecanodinitrile], the Normal melting temperature in data set [1] (Crystal) was -7.01 ± 0.73 °C. Also, in data set [2] (Crystal), the “Molar enthalpy of transition or fusion” value is 6.22 ± 0.406 kcal/mol.

Regarding `N#CCC#N` [propanedinitrile], in data set [1] (Crystal 1), the Normal melting temperature turned out to be 31.89 ± 0.55 °C. Further, the values for the Triple point temperature in data set [1] (Crystal 2), in data set [1] (Crystal 3) and in data set [1] (Crystal 4) were 303.64 ± 2.1 K, 294.24 ± 1.1 K and 260.9 ± 1.6 K, respectively. Moreover, the “Molar enthalpy of transition or fusion” value was 2.56 ± 0.11 kcal/mol in data set [2] (Crystal 1) and 0.103 ± 0.0287 kcal/mol in data set [2] (Crystal 4).

Turning to `N#CCCCC#N` [pentanedinitrile], the Normal melting temperature in data set [1] (Crystal) was -31.10 ± 0.5 °C. The “Molar enthalpy of transition or fusion” value in data set [2] (Crystal) came to 2.88 ± 0.189 kcal/mol.

`N#CCCCCC#N` [hexanedinitrile]: in data set [1] (Crystal 1), the Normal melting temperature was found to be 1.89 ± 0.49 °C. Further, the Triple point temperature in data set [1] (Crystal 2) came out at 270.25 ± 1.9 K. Further, the “Molar enthalpy of transition or fusion” value in data set [2] (Crystal 1) is 4.31 ± 0.153 kcal/mol.

Regarding `N#CCCCCCCCCC#N` [decanedinitrile], the Normal melting temperature in data set [1] (Crystal 1) worked out at 8.03 ± 0.46 °C. In data set [1] (Crystal 2), the Triple point temperature was determined as 278.02 ± 1.9 K. Besides, the “Molar enthalpy of transition or fusion” value in data set [2] (Crystal 1) amounted to 6.73 ± 0.153 kcal/mol.

Regarding `N#CCCC#N` [butanedinitrile], the Normal melting temperature in data set [1] (Crystal 1) was found to be 57.11 ± 1.4 °C. Also, the Triple point temperature in data set [1] (Crystal 2) turned out to be 233.59 ± 0.53 K. The “Molar enthalpy of transition or fusion” value was 0.896 ± 0.11 kcal/mol in data set [2] (Crystal 1) and 1.46 ± 0.0813 kcal/mol in data set [2] (Crystal 2).

For the compound `N#CCCCCCCCCCCC#N` [dodecanedinitrile], the Normal melting temperature in data set [1] (Crystal) came out at 21.08 ± 0.48 °C. Also, the “Molar enthalpy of transition or fusion” value in data set [2] (Crystal) is 8.21 ± 0.263 kcal/mol.

As for `N#CCCCCCCCC#N` [nonanedinitrile], in data set [1] (Crystal), the Normal melting temperature was -22.01 ± 0.55 °C. In addition, the “Molar enthalpy of transition or fusion” value in data set [2] (Crystal) was 4.46 ± 0.263 kcal/mol.

With `N#CCCCCCCC#N` [octanedinitrile], the Normal melting temperature in data set [1] (Crystal 1) was -4.22 ± 1.1 °C. In data set [1] (Crystal 2), the Triple point temperature was determined as 265.82 ± 2.5 K. In addition, the “Molar enthalpy of transition or fusion” value in data set [2] (Crystal 1) came to 5.25 ± 0.148 kcal/mol.
